According to the NIST ThermoML archive (doi:10.1021/je900387e):

Test: xn = mol fraction of the nth substance listed
Details: Liquid, Pycnometric method

CCCCBr [1-bromobutane] + O=C=O
Details	mass density [kg/m3]
308.2 K, 6320 kPa, x1 = 0.1495	1011
308.2 K, 6620 kPa, x1 = 0.0989	890
308.2 K, 6840 kPa, x1 = 0.0989	897
308.2 K, 6850 kPa, x1 = 0.0683	834
308.2 K, 6930 kPa, x1 = 0.0683	836
308.2 K, 6980 kPa, x1 = 0.0683	838
308.2 K, 7040 kPa, x1 = 0.0989	903
308.2 K, 7050 kPa, x1 = 0.0683	842
308.2 K, 7090 kPa, x1 = 0.0461	805
308.2 K, 7090 kPa, x1 = 0.0683	845
308.2 K, 7160 kPa, x1 = 0.0683	848
308.2 K, 7230 kPa, x1 = 0.0461	811
308.2 K, 7240 kPa, x1 = 0.0683	850
308.2 K, 7350 kPa, x1 = 0.0683	854
308.2 K, 7350 kPa, x1 = 0.0989	910
308.2 K, 7380 kPa, x1 = 0.0245	712
308.2 K, 7390 kPa, x1 = 0.0461	817
308.2 K, 7400 kPa, x1 = 0.0245	711
308.2 K, 7400 kPa, x1 = 0.1495	1018
308.2 K, 7420 kPa, x1 = 0.0245	713
308.2 K, 7440 kPa, x1 = 0.0245	716
308.2 K, 7450 kPa, x1 = 0.0683	858
308.2 K, 7480 kPa, x1 = 0.0245	720
308.2 K, 7520 kPa, x1 = 0.0245	724
308.2 K, 7540 kPa, x1 = 0.0683	861
308.2 K, 7550 kPa, x1 = 0.0461	823
308.2 K, 7590 kPa, x1 = 0.0245	729
308.2 K, 7640 kPa, x1 = 0.0245	734
308.2 K, 7660 kPa, x1 = 0.0461	827
308.2 K, 7660 kPa, x1 = 0.0683	864
308.2 K, 7700 kPa, x1 = 0.0245	738
308.2 K, 7700 kPa, x1 = 0.0989	916
308.2 K, 7750 kPa, x1 = 0.0461	830
308.2 K, 7770 kPa, x1 = 0.0245	743
308.2 K, 7780 kPa, x1 = 0.0683	867
308.2 K, 7830 kPa, x1 = 0.0245	747
308.2 K, 7850 kPa, x1 = 0.0461	833
308.2 K, 7920 kPa, x1 = 0.0245	752
308.2 K, 7950 kPa, x1 = 0.0461	836
308.2 K, 8010 kPa, x1 = 0.0245	757
308.2 K, 8060 kPa, x1 = 0.0461	839
308.2 K, 8090 kPa, x1 = 0.0245	762
308.2 K, 8120 kPa, x1 = 0.0989	924
308.2 K, 8190 kPa, x1 = 0.0461	843
308.2 K, 8190 kPa, x1 = 0.1495	1026
308.2 K, 8200 kPa, x1 = 0.0245	767
308.2 K, 8300 kPa, x1 = 0.0245	772
308.2 K, 8420 kPa, x1 = 0.0245	777
308.2 K, 8610 kPa, x1 = 0.0989	930
308.2 K, 8620 kPa, x1 = 0.0245	785
308.2 K, 8840 kPa, x1 = 0.0245	793
308.2 K, 9040 kPa, x1 = 0.1495	1033
308.2 K, 9100 kPa, x1 = 0.0245	801
308.2 K, 9190 kPa, x1 = 0.0989	938
308.2 K, 9370 kPa, x1 = 0.0245	809
308.2 K, 9680 kPa, x1 = 0.0245	818
308.2 K, 9820 kPa, x1 = 0.0989	944
308.2 K, 9960 kPa, x1 = 0.1495	1041
308.2 K, 10040 kPa, x1 = 0.0245	827
308.2 K, 10130 kPa, x1 = 0.0989	948
308.2 K, 10420 kPa, x1 = 0.0245	835
308.2 K, 10860 kPa, x1 = 0.0245	844
308.2 K, 10920 kPa, x1 = 0.1495	1048
308.2 K, 11350 kPa, x1 = 0.0245	853
308.2 K, 11370 kPa, x1 = 0.1495	1051
308.2 K, 11880 kPa, x1 = 0.0245	863
308.2 K, 11910 kPa, x1 = 0.1495	1055
308.2 K, 12480 kPa, x1 = 0.0245	873
308.2 K, 12510 kPa, x1 = 0.1495	1060
308.2 K, 13080 kPa, x1 = 0.1495	1063
308.2 K, 13130 kPa, x1 = 0.0245	882
308.2 K, 13590 kPa, x1 = 0.0245	889
308.2 K, 13640 kPa, x1 = 0.1495	1067
308.2 K, 14140 kPa, x1 = 0.0245	896
308.2 K, 14210 kPa, x1 = 0.1495	1071
308.2 K, 14290 kPa, x1 = 0.0245	899
308.2 K, 14850 kPa, x1 = 0.1495	1075
308.2 K, 15150 kPa, x1 = 0.1495	1077
313.1 K, 6900 kPa, x1 = 0.1495	986
313.1 K, 7230 kPa, x1 = 0.0989	875
313.1 K, 7250 kPa, x1 = 0.1495	991
313.1 K, 7480 kPa, x1 = 0.0683	811
313.1 K, 7510 kPa, x1 = 0.1495	994
313.1 K, 7520 kPa, x1 = 0.0989	881
313.1 K, 7590 kPa, x1 = 0.0683	814
313.1 K, 7670 kPa, x1 = 0.0683	817
313.1 K, 7680 kPa, x1 = 0.0461	756
313.1 K, 7730 kPa, x1 = 0.0461	758
313.1 K, 7760 kPa, x1 = 0.0683	820
313.1 K, 7770 kPa, x1 = 0.1495	997
313.1 K, 7820 kPa, x1 = 0.0461	764
313.1 K, 7830 kPa, x1 = 0.0989	882
313.1 K, 7860 kPa, x1 = 0.0683	823
